The subject of one assay is acetylated tubulin. Put plainly: High-content image analysis of induction of acetylated tubulin in A549 cells. The conditions noted are these: for EC50: Homo sapiens, A549, 8 h, read-out: EC50 for half-maximal induction of acetylated tubulin (AcTubulin); for AcHistone/AcTubulin in cell selectivity toward HDAC6: ratio of EC50 acetylated histone to EC50 acetylated tubulin, A549 cells.

For another assay, the target named is T1, HDAC4 (Homo sapiens, UniProt P56524).
T1 construct: Recombinant, full-length HDAC protein (BPS Biosciences) was incubated with fluorophore conjugated substrate; purchased BPS Biosciences
Briefly: In vitro HDAC enzyme inhibition assay, HDAC4. The conditions noted are these: for HDAC4/HDAC6 in vitro selectivity: ratio of IC50 for HDAC4 relative to that of HDAC6; for IC50: recombinant full-length HDAC4, substrate MAZ1675 10 μM; for selectivity toward HDAC6 compared to HDAC4 (in words): tested in vitro. Type of assay: biochemical. The method in brief: (§1)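 Deacetylase activity of full-length recombinant HDAC assessed via trypsin-coupled AMC release from substrate at Km concentration, pH 7.4 buffer with TCEP. Kinetic fluorescence slopes were normalized to controls.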

The target of the next assay is T2, HDAC7 (Homo sapiens, UniProt Q8WUI4).
T2 construct: Recombinant, full-length HDAC protein (BPS Biosciences) was incubated with fluorophore conjugated substrate; purchased BPS Biosciences
T2 sequence (Q8WUI4 1-952): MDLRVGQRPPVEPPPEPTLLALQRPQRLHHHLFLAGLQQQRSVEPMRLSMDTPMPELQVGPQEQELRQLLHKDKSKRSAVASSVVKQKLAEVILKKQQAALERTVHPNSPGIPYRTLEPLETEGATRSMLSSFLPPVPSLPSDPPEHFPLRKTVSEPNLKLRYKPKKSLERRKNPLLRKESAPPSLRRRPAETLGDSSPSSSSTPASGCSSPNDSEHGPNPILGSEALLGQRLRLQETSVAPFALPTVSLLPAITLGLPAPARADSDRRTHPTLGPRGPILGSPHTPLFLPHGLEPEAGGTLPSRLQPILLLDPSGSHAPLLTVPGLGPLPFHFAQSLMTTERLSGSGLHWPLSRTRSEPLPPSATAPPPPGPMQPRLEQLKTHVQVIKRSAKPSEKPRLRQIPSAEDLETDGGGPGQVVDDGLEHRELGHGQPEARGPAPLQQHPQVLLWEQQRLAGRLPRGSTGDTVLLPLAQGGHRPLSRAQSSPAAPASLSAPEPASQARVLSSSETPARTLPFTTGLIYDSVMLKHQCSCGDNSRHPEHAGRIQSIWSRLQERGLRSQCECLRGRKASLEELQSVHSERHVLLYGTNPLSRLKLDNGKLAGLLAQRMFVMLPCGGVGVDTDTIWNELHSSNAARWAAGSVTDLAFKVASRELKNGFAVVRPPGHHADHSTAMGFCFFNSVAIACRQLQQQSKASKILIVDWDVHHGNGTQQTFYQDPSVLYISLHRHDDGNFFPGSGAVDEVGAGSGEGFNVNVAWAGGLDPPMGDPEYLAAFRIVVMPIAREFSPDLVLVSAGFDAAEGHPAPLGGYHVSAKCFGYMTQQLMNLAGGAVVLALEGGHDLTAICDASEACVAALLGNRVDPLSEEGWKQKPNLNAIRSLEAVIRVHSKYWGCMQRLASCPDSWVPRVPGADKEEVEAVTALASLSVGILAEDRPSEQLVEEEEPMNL
Briefly: In vitro HDAC enzyme inhibition assay, HDAC7. It counts as biochemical. The conditions noted are these: for HDAC7/HDAC6 in vitro selectivity: ratio of IC50 for HDAC7 relative to that of HDAC6; for IC50: recombinant full-length HDAC7, substrate MAZ1675 22 μM. The method in brief:
as §1

The next assay deals with T3, HDAC6 (Homo sapiens, UniProt Q9UBN7).
T3 construct: Recombinant, full-length HDAC protein (BPS Biosciences) was incubated with fluorophore conjugated substrate; purchased BPS Biosciences
T3 sequence (Q9UBN7 1-1215): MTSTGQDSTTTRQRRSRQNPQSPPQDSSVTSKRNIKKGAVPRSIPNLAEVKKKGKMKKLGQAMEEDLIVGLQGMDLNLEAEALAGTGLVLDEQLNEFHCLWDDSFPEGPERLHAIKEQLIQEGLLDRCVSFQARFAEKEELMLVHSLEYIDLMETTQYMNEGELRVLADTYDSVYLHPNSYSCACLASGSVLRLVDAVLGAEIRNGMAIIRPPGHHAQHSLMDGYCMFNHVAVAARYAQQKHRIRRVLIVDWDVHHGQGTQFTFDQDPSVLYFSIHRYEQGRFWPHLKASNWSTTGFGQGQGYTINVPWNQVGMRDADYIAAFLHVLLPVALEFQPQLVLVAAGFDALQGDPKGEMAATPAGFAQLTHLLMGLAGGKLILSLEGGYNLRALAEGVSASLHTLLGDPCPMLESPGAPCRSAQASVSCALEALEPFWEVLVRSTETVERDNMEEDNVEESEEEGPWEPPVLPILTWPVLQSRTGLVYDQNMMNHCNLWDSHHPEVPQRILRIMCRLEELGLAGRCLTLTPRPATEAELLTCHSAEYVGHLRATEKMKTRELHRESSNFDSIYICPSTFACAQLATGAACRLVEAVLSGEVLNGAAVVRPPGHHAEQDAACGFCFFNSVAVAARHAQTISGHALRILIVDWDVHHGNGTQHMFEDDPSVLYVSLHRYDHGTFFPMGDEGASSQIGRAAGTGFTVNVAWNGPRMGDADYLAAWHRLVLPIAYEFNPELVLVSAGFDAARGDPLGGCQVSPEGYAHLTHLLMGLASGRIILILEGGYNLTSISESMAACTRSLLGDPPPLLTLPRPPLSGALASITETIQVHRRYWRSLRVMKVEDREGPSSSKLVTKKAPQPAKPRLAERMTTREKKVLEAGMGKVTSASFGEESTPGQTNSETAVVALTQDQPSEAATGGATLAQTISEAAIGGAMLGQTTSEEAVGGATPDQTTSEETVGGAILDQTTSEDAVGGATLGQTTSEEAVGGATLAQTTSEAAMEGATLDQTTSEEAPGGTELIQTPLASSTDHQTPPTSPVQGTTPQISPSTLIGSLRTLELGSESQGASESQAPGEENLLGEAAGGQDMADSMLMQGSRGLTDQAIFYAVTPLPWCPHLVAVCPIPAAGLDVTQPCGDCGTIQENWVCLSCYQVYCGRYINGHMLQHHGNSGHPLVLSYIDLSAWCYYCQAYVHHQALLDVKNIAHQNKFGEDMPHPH
Put plainly: In vitro HDAC enzyme inhibition assay, HDAC6. The conditions noted are these: recombinant full-length HDAC6, substrate MAZ1600 9 μM. It counts as biochemical. The method in brief: as §1

The target in another assay is T4, HDAC3 (Homo sapiens, UniProt O15379).
T4 construct: Recombinant, full-length HDAC protein (BPS Biosciences) was incubated with fluorophore conjugated substrate; purchased BPS Biosciences
Briefly: In vitro HDAC enzyme inhibition assay, HDAC3. Type of assay: biochemical. The conditions noted are these: for HDAC3/HDAC6 in vitro selectivity: ratio of IC50 for HDAC3 relative to that of HDAC6; for IC50: recombinant full-length HDAC3, substrate MAZ1600 9 μM. The method in brief: as §1

T1 sequence (P56524 whole entry): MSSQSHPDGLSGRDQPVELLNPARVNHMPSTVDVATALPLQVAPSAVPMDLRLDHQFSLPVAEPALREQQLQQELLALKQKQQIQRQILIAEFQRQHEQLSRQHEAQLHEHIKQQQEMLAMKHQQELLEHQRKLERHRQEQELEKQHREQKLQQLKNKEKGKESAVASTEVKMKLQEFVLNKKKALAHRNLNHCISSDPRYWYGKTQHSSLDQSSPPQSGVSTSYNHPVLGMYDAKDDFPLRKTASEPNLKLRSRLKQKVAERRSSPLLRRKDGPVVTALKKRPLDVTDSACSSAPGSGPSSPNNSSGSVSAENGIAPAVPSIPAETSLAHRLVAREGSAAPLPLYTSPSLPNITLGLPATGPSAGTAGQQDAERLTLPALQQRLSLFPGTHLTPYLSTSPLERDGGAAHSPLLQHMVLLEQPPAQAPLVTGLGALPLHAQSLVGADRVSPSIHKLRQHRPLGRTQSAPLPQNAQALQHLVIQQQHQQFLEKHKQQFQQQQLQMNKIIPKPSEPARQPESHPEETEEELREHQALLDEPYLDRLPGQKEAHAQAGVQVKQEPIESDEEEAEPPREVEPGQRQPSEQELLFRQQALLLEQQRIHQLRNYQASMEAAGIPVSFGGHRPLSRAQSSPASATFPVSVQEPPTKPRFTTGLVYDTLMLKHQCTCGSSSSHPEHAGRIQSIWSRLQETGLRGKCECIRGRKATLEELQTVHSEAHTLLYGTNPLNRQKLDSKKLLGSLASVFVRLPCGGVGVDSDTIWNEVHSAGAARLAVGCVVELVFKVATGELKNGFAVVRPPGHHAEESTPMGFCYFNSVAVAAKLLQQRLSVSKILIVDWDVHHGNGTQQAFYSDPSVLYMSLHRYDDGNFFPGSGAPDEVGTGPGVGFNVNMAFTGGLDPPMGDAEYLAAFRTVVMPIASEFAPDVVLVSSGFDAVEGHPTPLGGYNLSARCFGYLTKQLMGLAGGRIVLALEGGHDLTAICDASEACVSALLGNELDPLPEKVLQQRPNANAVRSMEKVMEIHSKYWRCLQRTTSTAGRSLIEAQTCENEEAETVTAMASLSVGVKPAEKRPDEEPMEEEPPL
T4 sequence (O15379 whole entry): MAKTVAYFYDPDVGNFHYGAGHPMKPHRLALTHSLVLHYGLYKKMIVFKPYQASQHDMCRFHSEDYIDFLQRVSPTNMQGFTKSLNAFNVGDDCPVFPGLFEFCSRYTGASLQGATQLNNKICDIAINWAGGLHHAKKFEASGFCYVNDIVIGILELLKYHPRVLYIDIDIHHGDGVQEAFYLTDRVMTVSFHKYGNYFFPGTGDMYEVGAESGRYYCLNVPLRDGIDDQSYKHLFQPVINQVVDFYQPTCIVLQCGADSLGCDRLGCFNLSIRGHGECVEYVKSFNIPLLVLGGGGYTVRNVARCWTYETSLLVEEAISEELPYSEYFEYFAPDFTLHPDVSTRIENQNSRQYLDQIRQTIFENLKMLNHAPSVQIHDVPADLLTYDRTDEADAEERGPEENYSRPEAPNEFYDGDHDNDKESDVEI
T4 sequence (Q9Y618 395-489 partner limits assumed): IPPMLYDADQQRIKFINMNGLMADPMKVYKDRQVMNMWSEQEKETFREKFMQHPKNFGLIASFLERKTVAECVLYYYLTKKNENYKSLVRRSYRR
Procedure for acetylated tubulin: Cells were treated with each test HDACi compound with an automated pin transfer instrument (Janus, Perkin Elmer) and incubated for 8 hours. […] Fixation solution was aspirated and 90 μL of washing solution (0.1% Triton X-100 in PBS) was added prior to 10 minute incubation at 4° C. Washing solution was aspirated and cells were incubated at 4° C. for about 1 hour in blocking solution (0.1% Triton X-100+2% BSA in PBS). Washing solution was aspirated, and cells were incubated for about 1 hour at 4° C. in primary antibody for acetylated-tubulin (Sigma T7451) and acetylated-histone (Cell Signaling #9441L) at a 1:1000 dilution in blocking solution. Primary antibody solution was aspirated, and cells were washed three times in 90 μL of washing solution. […] Secondary antibody and nuclear staining solution was aspirated and cells were washed three times in 90 μL of washing solution. After the third wash, 50 μL of PBS was added to each well. Image acquisition was done on a high content imaging microscope (ImageXpress Micro, Molecular Devices), and image analysis (MetaXpress, Molecular Devices) was performed to obtain average acetylated-tubulin and acetylated-histone signal per cell based on treatment. Replicate experimental data from incubations with inhibitor were normalized to DMSO controls.

Usually EC50 stands for the concentration giving half of the maximal effect. A word on the IC50: it is the concentration that gives 50% inhibition. With `O=C(NO)c1ccc(Cn2nnc3cc(Cl)ccc32)cc1` [C4, 4-((5-chloro-1H-benzo[d][1,2,3]triazol-1-yl)methyl)-N-hydroxybenzamide], in the assay on acetylated tubulin, the EC50 was 1920 nM and the “AcHistone/AcTubulin in cell selectivity toward HDAC6” value stood at 3.137. For the same compound, on HDAC4, the “HDAC4/HDAC6 in vitro selectivity” value was found to be 34808, the IC50 amounted to 1920 nM and the “selectivity toward HDAC6 compared to HDAC4 (in words)” value is “exceptionally high selectivity (Inhibitors with in vitro selectivity values for HDAC6 of at least 30,000 are considered to have exceptionally high selectivity toward HDAC6)”. In addition, on HDAC7, the “HDAC7/HDAC6 in vitro selectivity” value is 7608 and the IC50 was found to be 420 nM. The IC50 on HDAC6 was determined as 0.0552 nM. Moreover, at HDAC3, the “HDAC3/HDAC6 in vitro selectivity” value came to 3920 and the IC50 was 216 nM.
With `O=C(NO)c1ccc(Cn2nnc3cc(Br)ccc32)cc1` [C5, 4-((5-bromo-1H-benzo[d][1,2,3]triazol-1-yl)methyl)-N-hydroxybenzamide], in the assay with acetylated tubulin, the EC50 is 150 nM and the “AcHistone/AcTubulin in cell selectivity toward HDAC6” value is recorded as 15.37. Also, at HDAC4, the “HDAC4/HDAC6 in vitro selectivity” value was determined as 60319, the IC50 was found to be 1560 nM and the “selectivity toward HDAC6 compared to HDAC4 (in words)” value is recorded as “exceptionally high selectivity (Inhibitors with in vitro selectivity values for HDAC6 of at least 30,000 are considered to have exceptionally high selectivity toward HDAC6)”. At HDAC7, the “HDAC7/HDAC6 in vitro selectivity” value is 11817 and the IC50 worked out at 305 nM. In addition, the IC50 at HDAC6 is 0.0258 nM. In addition, on HDAC3, the “HDAC3/HDAC6 in vitro selectivity” value turned out to be 4479 and the IC50 turned out to be 115 nM.

Values taken from patent US20150197497A1, “SELECTIVE INHIBITORS OF HISTONE DEACETYLASE ISOFORM 6 AND METHODS THEREOF” (DANA-FARBER CANCER INSTITUTE, INC., priority 2011, published 2015).
